Measured values published in US20140377403A1, “METHOD FOR EVALUATING FLAVOR-IMPROVING AGENT” (T. HASEGAWA CO., LTD., priority 2011, published 2014).

Assays:
[1] = test system: subjects; assay: Sensory evaluation of strength of taste of sample solutions by subjects; assay type: in vivo, human; details: for strength of sensory sweetness: subjects who showed a change in salivary gland response in Example 2
Source text: Each subject is held in a resting state, keeps water in the mouth such that the water spreads throughout the mouth for 30 seconds, then swallows the water, and then is held in a resting state for 60 seconds. Subsequently, the subject keeps a sample in the mouth to carefully taste the sample in the mouth for 30 seconds, then swallows the sample, and then is held in a resting state for 60 seconds again. Subsequently, the subject keeps water in the mouth again such that the water spreads throughout the mouth for 30 seconds, then swallows the water, and then is held in a resting state for 60 seconds. Subsequently, the subject keeps another sample in the mouth to carefully taste the sample in the mouth for 30 seconds, then swallows the sample, and then is held in a resting state for 60 seconds again. Thus, drinking of water and drinking of a sample are alternately repeated (FIG. 2). A sample can be evaluated at about four or five different concentrations in each experiment. […] Samples at previously selected four or five different concentrations are sequentially evaluated by the above-described procedure. During the evaluation of the sample, including the times of drinking and resting, the blood flow is measured, and the change therein is recorded. In addition, sensory evaluation is performed during the tasting of the sample in the mouth for 30 seconds. After completion of the evaluation at a series of four or five concentrations, the strength of flavor of the sample is concluded lastly to fill the sensory evaluation sheet (FIG. 3).
The sensory evaluation was performed in accordance with the evaluation questionnaire shown in FIG. 3 for the strength of taste as 0: tasteless, 3: weak, 6: moderate, 9: strong, and 12: very strong.
The samples of four different concentrations were subjected to sensory evaluation from a lower concentration of ethylmaltol to a higher concentration sequentially in accordance with the time schedule shown in FIG. 2 as in Example 1.

[2] = test system: salivary gland; assay: Salivary gland response: change in blood flow (signal strength) at a periphery of the temple of the forehead, measured with an optical topography system; assay type: in vivo, human
Source text: Each subject is held in a resting state, keeps water in the mouth such that the water spreads throughout the mouth for 30 seconds, then swallows the water, and then is held in a resting state for 60 seconds. Subsequently, the subject keeps a sample in the mouth to carefully taste the sample in the mouth for 30 seconds, then swallows the sample, and then is held in a resting state for 60 seconds again. Subsequently, the subject keeps water in the mouth again such that the water spreads throughout the mouth for 30 seconds, then swallows the water, and then is held in a resting state for 60 seconds. Subsequently, the subject keeps another sample in the mouth to carefully taste the sample in the mouth for 30 seconds, then swallows the sample, and then is held in a resting state for 60 seconds again. Thus, drinking of water and drinking of a sample are alternately repeated (FIG. 2). A sample can be evaluated at about four or five different concentrations in each experiment. […] Samples at previously selected four or five different concentrations are sequentially evaluated by the above-described procedure. During the evaluation of the sample, including the times of drinking and resting, the blood flow is measured, and the change therein is recorded. In addition, sensory evaluation is performed during the tasting of the sample in the mouth for 30 seconds. After completion of the evaluation at a series of four or five concentrations, the strength of flavor of the sample is concluded lastly to fill the sensory evaluation sheet (FIG. 3). When a sample is drunk in accordance with the above-described procedure, the blood flow at a periphery of the temple of the forehead gradually increases after putting the sample into the mouth, and the signal strength reaches the maximum within about 5 to 30 seconds. Subsequently, the signal strength gradually decreases and reaches the original level within about 60 seconds after putting the sample into the mouth. Accordingly, a value obtained by subtracting the “minimum” blood flow within about 15 seconds after the moment of putting a sample into the mouth from the “maximum” blood flow during from about 5 to 30 seconds after putting the sample into the mouth at a specific site, i.e., the response strength of a change in blood flow, is defined as a change in signal strength at the periphery of the temple of the forehead. […] A probe (FIG. 1) having a large number of sensors connected to an optical topography system body was set to the head of each subject, and then each sample was given to the subjects sequentially, followed by measurement. In accordance with the time schedule shown in FIG. 2, after resting, water was first given, and then a sample was given to aggressively evaluate the flavor. The order of drinking aqueous solutions of one kind of a taste substance given to the subjects was from a lower concentration to a higher concentration sequentially. (1) FIG. 4 is a graph illustrating the amount of typical change in oxygenated hemoglobin with time when water was put in the mouth and drunk and then a sample was put in the mouth and drunk, measured with an optical topography system at a periphery of the temple of the forehead (channel 52). […] The response strength was determined by that “when the time at which a sample was drunk is defined as a time of 0 second, (the maximum blood flow within 5 to 30 seconds)−(the minimum blood flow within 0 to 15 seconds)”.

[3] = 0, 1, 5, 10 ppm added to 4% aqueous sugar solution

Compound: CCc1occc(=O)c1O [ethylmaltol, reference compound]
- strength of sensual sweetness ([1]; 0, 1, 5, 10 ppm added to 4% aqueous sugar solution, eight arbitrarily selected subjects): increased with the amount of ethylmaltol
- signal strength compared with 4% aqueous sugar solution alone ([2]; 0, 1, 5, 10 ppm added to 4% aqueous sugar solution, eight arbitrarily selected subjects, FIGS. 6 and 7): An enhancement in signal strength by addition of ethylmaltol was confirmed in six subjects

Compound: OC[C@H]1O[C@@](CO)(O[C@H]2O[C@H](CO)[C@@H](O)[C@H](O)[C@H]2O)[C@@H](O)[C@@H]1O [sugar]
- response strength measured at a periphery of the temple of the forehead, compared with water ([2]; aqueous sugar solution 0 to 8%, eight arbitrarily selected subjects): larger than that to water in all subjects
- dependence of response strength on sample concentration and sweetness strength ([2]; sugar concentration range 0 to 8%, eight subjects): an enhancement of the response strength depending on the sample concentration and the sweetness strength was observed

Compound: OCCc1ccccc1 [2-phenylethyl alcohol]
- strength of sensory sweetness [1, 3]: No increase

Compound: CC(C)=CCCC(C)=CC=O [citral]
- strength of sensory acidity ([1]; 0, 1, 5, 10 ppm added to 0.1% aqueous citric acid solution, subjects showing a change in salivary gland response to a known flavor-improving agent): increased with the concentration
- strength of sensory sweetness [1, 3]: No increase
- response measured at the periphery of the temple of the forehead compared with 0.1% aqueous citric acid solution alone ([2]; 0, 1, 5, 10 ppm added to 0.1% aqueous citric acid solution, subjects showing a change in salivary gland response to a known flavor-improving agent, FIG. 10): enhanced

Compound: COc1ccc(C=CC=O)cc1 [p-methoxycinnamaldehyde]
- strength of sensory sweetness [1, 3]: increased with the concentration
- response measured at the periphery of the temple of the forehead compared with 4% aqueous sugar solution alone ([2]; 0, 1, 5, 10 ppm added to 4% aqueous sugar solution, subjects who showed a change in salivary gland response in Example 2, FIGS. 8 and 9): enhanced
